This passage reports EC50 and IC50 results from US11932634B2 (Gilead Sciences, Inc., priority 2021, dated 2024).

The subject of experiment [1] is Jurkat NFκB-luciferase cells. The experiment in a line: Jurkat NFκB-Luciferase Assay.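 Also: bioluminescence read-out normalized to DMSO basal activation and to maximum enhancement at 1 µM compound, rising signal indicating stronger T-cell activation through DGKα inhibition.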 Format: cell-based. To be noted: Homo sapiens; Jurkat NFκB-luciferase cells activated with anti-CD3 antibody (OKT3), 2.5 hrs at 37° C., One-Glo Ex; geometric mean; read-out: DGK NFKb Luciferase EC50.
Experimental: The activity of compounds was tested in a cell based NFκB reporter assay. Jurkat cells that are stably expressing a luciferase reporter construct under the transcriptional control of a NFκB reporter element were activated with an anti-CD3 antibody and luciferase levels were measured with a bioluminescence readout.
The day after, the excess antibody was washed out five times with 100 ul/well of assay medium (RPMI supplemented with 10% fetal bovine serum) using a Biotek EL406 instrument and leaving 20 µl of residual volume in each well. Jurkat NFκB-luciferase cells (Promega #) were harvested and diluted to 1 million cells/ml in assay medium. Sixty nanoliters of test compound dissolved in DMSO at various concentrations were dispensed into 384-well v-bottom polypropylene plates (Greiner) using a Labcyte Echo instrument. Thirty microliters of medium containing the Jurkat NFκB-luciferase cells were then dispensed using a Biotek MicroFlo instrument in each well of the compound-containing plate. The medium/cell/compound mixture was mixed with a Bravo instrument and 20 ul/well of the mixture was transferred to the anti-CD3-coated plate. The assay mixture was then incubated for 2.5 hrs at 37° C. followed by equilibration at 25° C. for 30 min. Forty microliters of One-Glo Ex (Promega) was then added to the assay mixture and luciferase activity was read on a Envision plate reader 7 minutes later.
Bioluminescence data were normalized based on maximum enhancement (1 micromolar of compound) and on basal activation (DMSO) controls. Least squares curve fittings were performed using a four-parameter variable slope nonlinear regression model. […] EC50 values from multiple experiments were averaged by geometric mean and the standard deviation was calculated.
For the next experiment, the target named is T1, human DGKα (Homo sapiens, UniProt P23743).
T1 construct: purchased Carna Biosciences'; inferred from the same paragraph's 'obtained from Carna Biosciences')
T1 sequence (P23743 whole entry): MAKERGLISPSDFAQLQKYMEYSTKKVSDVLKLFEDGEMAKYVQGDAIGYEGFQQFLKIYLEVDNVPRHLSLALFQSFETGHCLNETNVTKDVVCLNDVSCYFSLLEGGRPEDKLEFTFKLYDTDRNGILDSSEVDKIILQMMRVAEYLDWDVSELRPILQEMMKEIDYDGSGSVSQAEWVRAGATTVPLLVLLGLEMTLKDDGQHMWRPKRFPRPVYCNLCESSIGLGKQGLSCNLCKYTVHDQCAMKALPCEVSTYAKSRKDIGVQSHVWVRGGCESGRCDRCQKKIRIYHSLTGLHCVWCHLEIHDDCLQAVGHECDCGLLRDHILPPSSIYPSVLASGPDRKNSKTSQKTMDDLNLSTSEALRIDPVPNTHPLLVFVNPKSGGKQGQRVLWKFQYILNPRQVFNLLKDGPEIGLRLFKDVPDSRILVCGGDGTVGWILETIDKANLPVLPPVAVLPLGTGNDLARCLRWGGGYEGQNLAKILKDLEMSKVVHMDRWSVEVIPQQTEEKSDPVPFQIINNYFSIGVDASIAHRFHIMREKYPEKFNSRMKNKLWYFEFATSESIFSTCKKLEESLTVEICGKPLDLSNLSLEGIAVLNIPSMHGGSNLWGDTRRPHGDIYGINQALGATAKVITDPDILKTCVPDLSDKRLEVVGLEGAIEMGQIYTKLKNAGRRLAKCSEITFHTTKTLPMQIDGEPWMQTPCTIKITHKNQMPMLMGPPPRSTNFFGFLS
The experiment in a line: DGKα Biochemical Activity Assay (ADP-Glo).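 Also: recombinant enzyme converting diacylglycerol in lipid micelles with ATP, ADP formed detected by luminescence, IC50 from a four-parameter nonlinear fit, geometric mean across experiments.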 A general note: ADP-Glo turns the ADP formed in a reaction into a luminescent signal.

Text for human DGKα: Alternatively, the enzymatic activity of human DGKα was monitored in a biochemical assay in the presence or absence of compounds and using micelles containing 18:1 Diacylglycerol (DAG), 16:0-18:1 PS (POPS) and Octylglucoside as substrate. DGKα activity led to conversion of DAG and ATP to Phosphatidic Acid (PA) and ADP. Levels of ADP were monitored by bioluminescence using the ADP-Glo Kinase Assay (Promega) and were indicative of DGKα activity.
Ten nanoliters of test compound dissolved in DMSO at various concentrations were dispensed into a 384-well low volume nonbinding service white plates (Corning #3824) using a Labcyte Echo instrument. Recombinant DGKα Biosciences) in assay buffer (5 μL in 50 mM MOPS [3-(N-morpholino) propanesulfonic acid], pH 7.2; 0.0025% Triton X-100; 1 mM dithiothreitol; 5 mM MgCl2, 200 μM ATP) was added to the compound-containing plate and was incubated for 15 minutes at 25° C. A substrate solution (5 μL in 1.7 mM 1,2-dioleoyl-sn-glycerol [18:1 DAG], 13.5 mM 1-palmitoyl-2-oleoyl-sn-glycero-3-phospho-L-serine [16:0-18:1 PS](POPS), 2 μM CaCl2), 100 mM Octylglucoside (OG), 1 mM DTT) (obtained from Carna Biosciences) diluted in DGK ALPHA assay buffer was then added to start the reaction. Final concentrations were 1 nM DGKα, 100 μM ATP, 1 μM calcium chloride, 0.85 mM 1,2-dioleoyl-sn-glycerol (18:1 DAG), 6.75 mM 1-palmitoyl-2-oleoyl-sn-glycero-3-phospho-L-serine (16:0-18:1 PS) (POPS), 1 μM CaCl2), 50 mM Octylglucoside (OG) and 5 mM MgCl2. The reaction mixture was incubated at 25° C. for 1 hour. ADP-Glo Reagent (10 μL, 10 mM Mg added) provided by the kit was added to each well and incubated at 25° C. for 40 minutes. Then, 20 μL of Kinase Detection Reagent was added and incubated at 25° C. for 40 minutes. Luciferase activity of each well was measured via luminescence on an Envision plate reader (PerkinElmer).
Least squares curve fittings were performed using a four-parameter variable slope nonlinear regression model. […] IC50 values from multiple experiments were averaged by geometric mean and the standard deviation was calculated.

As for `CC(C)(C#Cc1cccc2c1COCCN2c1nc(=O)[nH]c2cccc(F)c12)C(F)(F)F` [Example 92, 5-fluoro-4-(6-(4,4,4-trifluoro-3,3-dimethylbut-1-yn-1-yl)-2,3-dihydrobenzo[e][1,4]oxazepin-1(5H)-yl)quinazolin-2(1H)-one], the concentration giving a half-maximal response (EC50) – broadly, the concentration giving half of the maximal effect – in experiment [1] stood at 1.66 nM. Also, inhibition at human DGKα was half-maximal at 37.4 nM (IC50).
For `CC1(C#Cc2cccc3c2COCCN3c2nc(=O)[nH]c3cccc(F)c23)COC1` [Example 93, 5-fluoro-4-(6-((3-methyloxetan-3-yl)ethynyl)-2,3-dihydrobenzo[e][1,4]oxazepin-1(5H)-yl)quinazolin-2(1H)-one], in that order: 7.25 nM and 6.6 nM.
Consider `[2H]C([2H])([2H])n1c(=O)nc(N2CCOCc3c(C#CC(C)(C)O)cccc32)c2c(F)cccc21` [Example 94, 5-fluoro-4-[6-(3-hydroxy-3-methyl-but-1-ynyl)-3,5-dihydro-2H-4,1-benzoxazepin-1-yl]-1-(trideuteriomethyl)quinazolin-2-one], for which, in experiment [1], the half-maximal effective concentration (EC50) came out at 16.1 nM. In addition, half-maximal inhibition against human DGKα (IC50) was put at 7.77 nM.
In the same order, the values of `[2H]C([2H])([2H])n1c(=O)nc(N2CCOCc3c(C#CC(C)(C)C#N)cccc32)c2c(F)cccc21` [Example 95, 4-[1-[5-fluoro-2-oxo-1-(trideuteriomethyl)quinazolin-4-yl]-3,5-dihydro-2H-4,1-benzoxazepin-6-yl]-2,2-dimethyl-but-3-ynenitrile] are 2.29 nM and 2.1 nM.
As to `[2H]C([2H])([2H])n1c(=O)nc(N2CCOCc3c(C#CC(C)(C)O)cccc32)c2c(F)c(F)ccc21` [Example 97, 5,6-difluoro-4-[6-(3-hydroxy-3-methyl-but-1-ynyl)-3,5-dihydro-2H-4,1-benzoxazepin-1-yl]-1-(trideuteriomethyl)quinazolin-2-one], the concentration for a half-maximal effect (EC50) in experiment [1] was 15.8 nM. In addition, the IC50 (as a rule, the concentration needed to halve the response being measured) on human DGKα was 4.37 nM.
Take `[2H]C([2H])([2H])n1c(=O)nc(N2CCOCc3c(C#CC(C)(C)C#N)cccc32)c2c(F)c(F)ccc21` [Example 98, 4-[1-[5,6-difluoro-2-oxo-1-(trideuteriomethyl)quinazolin-4-yl]-3,5-dihydro-2H-4,1-benzoxazepin-6-yl]-2,2-dimethyl-but-3-ynenitrile]: the EC50 in experiment [1] stood at 3.29 nM. Also, the concentration for half-maximal inhibition (IC50) at human DGKα came out at 2.83 nM.
For `[2H]C([2H])([2H])n1c(=O)nc(N2CCOCc3c(Br)cccc32)c2c(F)cccc21` [Example 99, 4-(6-bromo-2,3-dihydrobenzo[e][1,4]oxazepin-1(5H)-yl)-5-fluoro-1-(methyl-d3)quinazolin-2(1H)-one], in that order: 8.22 nM and 31.2 nM.
For `[2H]C([2H])([2H])n1c(=O)nc(N2CCOCc3c(C#CC4(C(F)(F)F)CC4)cccc32)c2c(F)cccc21` [Example 100, 5-fluoro-1-(methyl-d3)-4-(6-((1-(trifluoromethyl)cyclopropyl)ethynyl)-2,3-dihydrobenzo[e][1,4]oxazepin-1(5H)-yl)quinazolin-2(1H)-one], in that order: 0.979 nM and 16.6 nM.
In the same order, the values of `[2H]C([2H])([2H])n1c(=O)nc(N2CCOCc3c(C#CC4(C)COC4)cccc32)c2c(F)cccc21` [Example 101, 5-fluoro-1-(methyl-d3)-4-(6-((3-methyloxetan-3-yl)ethynyl)-2,3-dihydrobenzo[e][1,4]oxazepin-1(5H)-yl)quinazolin-2(1H)-one] are 4.09 nM and 2.62 nM.
Consider `O=c1nc(N2CCOCc3c(C#CC4(C(F)(F)F)CC4)cccc32)c2cc(F)cc(F)c2[nH]1` [Example 102], for which the EC50 in experiment [1] is 1.75 nM. It took 14.7 nM to reach half-maximal inhibition against human DGKα (IC50).
For `CC(C)(O)C#Cc1cccc2c1COCCN2c1nc(=O)[nH]c2c(F)cc(F)cc12` [Example 103], in that order: 47.4 nM and 8.98 nM.
`CC(C)(C#N)C#Cc1cccc2c1COCCN2c1nc(=O)[nH]c2c(F)cc(F)cc12` [Example 104]: in experiment [1], the EC50 came to 5.21 nM. The IC50 at human DGKα stood at 4.88 nM.
For `CC1(C#Cc2cccc3c2COCCN3c2nc(=O)[nH]c3c(F)cc(F)cc23)CC1` [Example 105], in that order: 0.85 nM and 6.96 nM.
With `CC1(C#Cc2cncc3c2CCCN3c2nc(=O)[nH]c3ccc(F)c(F)c23)CC1` [Example 107, 5,6-difluoro-4-(5-((1-methylcyclopropyl)ethynyl)-3,4-dihydro-1,7-naphthyridin-1(2H)-yl)quinazolin-2(1H)-one], the half-maximal effective concentration (EC50) in experiment [1] turned out to be 0.596 nM. Besides, on human DGKα, it took 7.96 nM to reach half-maximal inhibition (IC50).
As for `O=c1nc(N2CCCc3c(C#CC4(C(F)F)CC4)cncc32)c2c(F)c(F)ccc2[nH]1` [Example 108, 4-(5-((1-(difluoromethyl)cyclopropyl)ethynyl)-3,4-dihydro-1,7-naphthyridin-1(2H)-yl)-5,6-difluoroquinazolin-2(1H)-one], in experiment [1], the EC50 is 1.43 nM. This molecule returned a concentration for half-maximal inhibition (IC50) against human DGKα of 6.85 nM.
In the same order, the values of `[2H]C([2H])([2H])n1c(=O)nc(N2CCOCc3c(C#CC(C)(C)C(F)(F)F)cccc32)c2c(F)cccc21` [Example 109, 5-fluoro-1-(methyl-d3)-4-(6-(4,4,4-trifluoro-3,3-dimethylbut-1-yn-1-yl)-2,3-dihydrobenzo[e][1,4]oxazepin-1(5H)-yl)quinazolin-2(1H)-one] are 0.501 nM and 6.05 nM.
For `CC(C)(C#N)C#Cc1cccc2c1COCCN2c1nc(=O)[nH]c2cccc(F)c12` [Example 110, 4-(1-(5-fluoro-2-oxo-1,2-dihydroquinazolin-4-yl)-1,2,3,5-tetrahydrobenzo[e][1,4]oxazepin-6-yl)-2,2-dimethylbut-3-ynenitrile], in that order: 2.82 nM and 6.52 nM.
For `[2H]C([2H])([2H])n1c(=O)nc(N(CC(F)F)c2cccc(C#CC(C)(C)O)c2F)c2c(F)cccc21` [Example 111, 4-[N-(2,2-difluoroethyl)-2-fluoro-3-(3-hydroxy-3-methyl-but-1-ynyl)anilino]-5-fluoro-1-(trideuteriomethyl)quinazolin-2-one], in that order: 9.32 nM and 3.11 nM.
For the molecule `CC(F)(F)C1(C#Cc2cccc3c2COCCN3c2nc(=O)[nH]c3cccc(F)c23)CC1` [Example 112, 4-(6-((1-(1,1-difluoroethyl)cyclopropyl)ethynyl)-2,3-dihydrobenzo[e][1,4]oxazepin-1(5H)-yl)-5-fluoroquinazolin-2(1H)-one], the 50% effective concentration (EC50) in experiment [1] came out at 0.973 nM. For the same molecule, half-maximal inhibition at human DGKα (IC50) was put at 23.6 nM.
In the same order, the values of `CC(C)(O)C#Cc1nccc(N(CC(F)F)c2nc(=O)[nH]c3cccc(F)c23)c1F` [Example 113, 4-[2,2-difluoroethyl-[3-fluoro-2-(3-hydroxy-3-methyl-but-1-ynyl)-4-pyridyl]amino]-5-fluoro-1H-quinazolin-2-one] are 66.3 nM and 10.4 nM.
For the molecule `CC(C)(O)C#Cc1cc(F)cc(N(CC(F)F)c2nc(=O)[nH]c3c(Cl)cc(F)cc23)c1` [Example 114, 8-chloro-4-[N-(2,2-difluoroethyl)-3-fluoro-5-(3-hydroxy-3-methyl-but-1-ynyl)anilino]-6-fluoro-1H-quinazolin-2-one], the concentration giving a half-maximal response (EC50) in experiment [1] was 112 nM. On human DGKα, this molecule yielded a 50% inhibitory concentration (IC50) of 445 nM.
Regarding `CC1(C#Cc2nccc(N(CC(F)F)c3nc(=O)[nH]c4cccc(F)c34)c2F)CC1` [Example 115, 4-[2,2-difluoroethyl-[3-fluoro-2-[2-(1-methylcyclopropyl)ethynyl]-4-pyridyl]amino]-5-fluoro-1H-quinazolin-2-one], the concentration for a half-maximal effect (EC50) in experiment [1] was 1.21 nM. Further, inhibition against human DGKα was half-maximal at 6.05 nM (IC50).
As to `O=c1nc(N2CCCc3c2ccnc3C#CC2(C(F)(F)F)CC2)c2c(F)c(F)ccc2[nH]1` [Example 116, 5,6-difluoro-4-[5-[2-[1-(trifluoromethyl)cyclopropyl]ethynyl]-3,4-dihydro-2H-1,6-naphthyridin-1-yl]-1H-quinazolin-2-one], the EC50 in experiment [1] was found to be 0.945 nM. This molecule showed an IC50 on human DGKα of 4.07 nM.
For `[2H]C([2H])([2H])n1c(=O)nc(N(CC(F)F)c2ccnc(C#CC3(C)CC3)c2)c2c(F)c(F)ccc21` [Example 117, 4-[2,2-difluoroethyl-[2-[2-(1-methylcyclopropyl)ethynyl]-4-pyridyl]amino]-5,6-difluoro-1-(trideuteriomethyl)quinazolin-2-one], in that order: 4.7 nM and 3.36 nM.
In the same order, the values of `O=c1nc(N(CC(F)F)c2ccnc(C#CC3(C(F)(F)F)CC3)c2F)c2c(F)cccc2[nH]1` [Example 118, 4-[2,2-difluoroethyl-[3-fluoro-2-[2-[1-(trifluoromethyl)cyclopropyl]ethynyl]-4-pyridyl]amino]-5-fluoro-1H-quinazolin-2-one] are 3.73 nM and 25.7 nM.
In the same order, the values of `CC(C)(C#N)C#Cc1nccc(N(CC(F)F)c2nc(=O)[nH]c3cccc(F)c23)c1F` [Example 119, 4-[4-[2,2-difluoroethyl-(5-fluoro-2-oxo-1H-quinazolin-4-yl)amino]-3-fluoro-2-pyridyl]-2,2-dimethyl-but-3-ynenitrile] are 7.11 nM and 10.8 nM.
Regarding `[2H]C([2H])([2H])n1c(=O)nc(N(CC(F)F)c2ccnc(C#Cc3cnn(C)c3)c2)c2c(F)c(F)ccc21` [Example 120, 4-[2,2-difluoroethyl-[2-[2-(1-methylpyrazol-4-yl)ethynyl]-4-pyridyl]amino]-5,6-difluoro-1-(trideuteriomethyl)quinazolin-2-one], the EC50 in experiment [1] was 34.9 nM. The molecule further came in with a half-maximal inhibitory concentration (IC50) on human DGKα of 5.77 nM.
For `CC(C)(C#Cc1nccc(N(CC(F)F)c2nc(=O)[nH]c3cccc(F)c23)c1F)C(F)F` [Example 121, 4-[[2-(4,4-difluoro-3,3-dimethyl-but-1-ynyl)-3-fluoro-4-pyridyl]-(2,2-difluoroethyl)amino]-5-fluoro-1H-quinazolin-2-one], in that order: 8.44 nM and 20.7 nM.
For `O=c1nc(N(CC(F)F)c2ccnc(C#CC3CC3)c2F)c2c(F)cccc2[nH]1` [Example 122, 4-[[2-(2-cyclopropylethynyl)-3-fluoro-4-pyridyl]-(2,2-difluoroethyl)amino]-5-fluoro-1H-quinazolin-2-one], in that order: 3.46 nM and 7 nM.
